{
  "source": "a compilation of properties of binary mixtures (doi:10.1021/acs.jpcc.9b02625)",
  "experiment": "xn = mol fraction of the nth substance listed",
  "details": "303.15 K, 101 kPa",
  "data": [
    {"smiles": "O=S(=O)([N-]S(=O)(=O)C(F)(F)F)C(F)(F)F.[Li+]", "note": "+ O=S1(=O)CCCC1", "values": [
      {"measurement": "electrical conductivity", "setting": "x1 = 0.1", "value": 0.274, "unit": "S/m"},
      {"measurement": "viscosity", "setting": "x1 = 0.1", "value": 28, "unit": "mPa·s"},
      {"measurement": "electrical conductivity", "setting": "x1 = 0.111", "value": 0.262, "unit": "S/m"},
      {"measurement": "viscosity", "setting": "x1 = 0.111", "value": 31, "unit": "mPa·s"},
      {"measurement": "electrical conductivity", "setting": "x1 = 0.2", "value": 0.166, "unit": "S/m"},
      {"measurement": "viscosity", "setting": "x1 = 0.2", "value": 90.3, "unit": "mPa·s"},
      {"measurement": "electrical conductivity", "setting": "x1 = 0.25", "value": 0.104, "unit": "S/m"},
      {"measurement": "viscosity", "setting": "x1 = 0.25", "value": 175, "unit": "mPa·s"},
      {"measurement": "electrical conductivity", "setting": "x1 = 0.333", "value": 0.042, "unit": "S/m"},
      {"measurement": "viscosity", "setting": "x1 = 0.333", "value": 627, "unit": "mPa·s"}
    ]}
  ]
}
